Values of other authors in article PMC3775475 (European journal of medicinal chemistry, 2013).
pKi: −log10 of the molar value.

Target: kappa-OR (UniProt P41145)
Sequence (P41145 whole entry): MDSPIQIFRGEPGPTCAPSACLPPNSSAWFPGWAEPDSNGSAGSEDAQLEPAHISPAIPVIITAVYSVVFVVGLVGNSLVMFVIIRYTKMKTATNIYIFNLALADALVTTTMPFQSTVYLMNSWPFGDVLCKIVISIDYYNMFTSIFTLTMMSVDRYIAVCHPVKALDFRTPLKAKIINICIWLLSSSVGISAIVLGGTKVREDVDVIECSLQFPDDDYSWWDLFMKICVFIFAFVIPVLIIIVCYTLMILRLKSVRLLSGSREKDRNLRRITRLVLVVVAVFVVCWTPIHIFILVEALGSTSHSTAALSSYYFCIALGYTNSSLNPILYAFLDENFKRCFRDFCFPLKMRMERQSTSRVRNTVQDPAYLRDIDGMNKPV

| Compound | pKi |
| --- | --- |
| ff(D-nle)r-NH2 (R1 f, R2 f, R3 nle, R4 r) [compound 1] | 8.92 |
| CC[C@@H](C)[C@@H](NC(=O)[C@@H](Cc1ccccc1)NC(=O)[C@H](N)Cc1ccccc1)C(=O)N[C@H](CCCNC(=N)N)C(N)=O [compound 4] | 8.62 |
